We go through five compounds from DBAASP.

SMILES strings stand for the structures. In brackets after ≈: the same amount, converted by molar mass. Several values for one entry are separate records, joined by “and”; a condition that tells them apart may be missing. Equal entries are not always repeated.

Some test systems named below: Escherichia coli W3110; Staphylococcus aureus; Enterococcus faecalis; Citrobacter freundii; Escherichia coli; Escherichia coli ML-35; Bacillus megaterium Bm11; Pseudomonas aeruginosa; Micrococcus luteus; Enterococcus faecium; Klebsiella pneumoniae; Candida albicans; Acinetobacter baumannii; Streptococcus agalactiae; Serratia marcescens.
Test in all cases: ≥ marks a high value that may be exact or a test limit, other limits are often not marked, values filed in µg/mL are converted to µM
Assay [1] has as its system Listeria monocytogenes ATCC BAA-751.
Assay [2] deals with Pseudomonas aeruginosa ATCC 9027.
The test system of assay [3] is Salmonella enterica subsp. enterica serovar Typhimurium ATCC 14028.
The subject of assay [4] is Staphylococcus aureus ATCC 25923.
In assay [5] the test system is Staphylococcus aureus ATCC 29213.
For assay [6], the system named is Escherichia coli ATCC 25922.
Assay [7] has as its system Staphylococcus aureus ATCC 43300.
In assay [8] the test system is Bacillus cereus ATCC 11778.
Assay [9] concerns Pseudomonas aeruginosa PAK.
Assay [10] has as its system Streptococcus mutans UA159.
The subject of assay [11] is Streptococcus sobrinus ATCC 33478.
Assay [12] concerns Streptococcus sanguinis NY101.
Assay [13] deals with Staphylococcus haemolyticus.
In assay [14] the test system is Stenotrophomonas maltophilia.
Assay [15] concerns Pseudomonas aeruginosa ATCC 27853.
Assay [16] concerns Staphylococcus aureus 710A.
Assay [17] relates to Staphylococcus aureus LT1338.
Assay [18] has as its system Staphylococcus epidermidis LT1324.
For assay [19], the system named is Staphylococcus aureus LT1334.
The test system of assay [20] is Cutibacterium acnes ATCC 18380.
For assay [21], the system named is Escherichia coli ATCC 25726.
In assay [22] the test system is Cutibacterium acnes ATCC 15725.
Assay [23] relates to Cutibacterium acnes ATCC 50247.
In assay [24] the test system is Cutibacterium acnes ATCC 32548.
The test system of assay [25] is Cutibacterium acnes ATCC 29903.
For assay [26], the system named is Cutibacterium acnes ATCC 31766.
Assay [27] has as its system Candida albicans ATCC 90028.
Assay [28] deals with Cutibacterium acnes ATCC 33257.
In assay [29] the test system is Cutibacterium acnes ATCC 11828.
Assay [30] relates to Escherichia coli O18:K1:H7 Bort.

As to `CC[C@H](C)[C@H](NC(=O)CNC(=O)[C@H](CCCCN)NC(=O)[C@@H](NC(=O)[C@H](CC(C)C)NC(=O)[C@H](CO)NC(=O)CNC(=O)[C@H](CC(C)C)NC(=O)CNC(=O)[C@H](C)NC(=O)[C@H](CCCCN)NC(=O)[C@H](Cc1ccccc1)NC(=O)[C@@H](NC(=O)[C@H](CCC(=O)O)NC(=O)[C@H](CCCCN)NC(=O)[C@H](CC(C)C)NC(=O)CN)[C@@H](C)CC)C(C)C)C(=O)N[C@@H](C)C(=O)N[C@@H](C)C(=O)N[C@@H](Cc1cnc[nH]1)C(=O)N[C@H](C(=O)N[C@@H](C)C(=O)N[C@@H](CO)C(=O)O)C(C)C` [GLKEIFKAGLGSLVKGIAAHVAS], the MIC was at least 125 µM in assay [1]; 31.3 µM (≈ 70.9 µg/mL) in [2]; 62.5 µM (≈ 142 µg/mL) in assay [3]; 250 µM (≈ 567 µg/mL) in assay [4]; over 250 µM in assay [5]; 15.2 µM (≈ 34.5 µg/mL) in [6]. The MIC is over 250 µM in assay [7] and at least 250 µM in [8].
In the case of `CC[C@H](C)[C@H](NC(=O)[C@H](Cc1ccccc1)NC(=O)[C@H](Cc1cnc[nH]1)NC(=O)[C@H](CCCCN)NC(=O)[C@@H](NC(=O)[C@H](Cc1ccccc1)NC(=O)[C@@H]1CCCN1C(=O)[C@H](CO)NC(=O)[C@@H]1CCCN1C(=O)[C@H](CO)NC(=O)[C@@H]1CCCN1C(=O)[C@H](Cc1ccccc1)NC(=O)[C@H](Cc1cnc[nH]1)NC(=O)[C@H](CC(C)C)NC(=O)[C@H](Cc1cnc[nH]1)NC(=O)[C@H](Cc1ccccc1)NC(=O)[C@H](Cc1cnc[nH]1)NC(=O)[C@@H](N)Cc1ccccc1)[C@@H](C)CC)C(=O)N[C@@H](Cc1cnc[nH]1)C(=O)N[C@@H](CCCN=C(N)N)C(=O)N[C@@H](Cc1ccccc1)C(N)=O` [FHFHLHFPSPSPFIKHFIHRF], the MIC in assay [9] was at least 46.7 µM; in [10], 12 µM (≈ 32 µg/mL); in [11] it was at least 46.7 µM; in assay [12] it was at least 46.7 µM; in the assay on Escherichia coli W3110, 23.4 µM (≈ 62.5 µg/mL); against Staphylococcus aureus, over 187 µM. In addition, the MIC against Enterococcus faecalis was at least 93.4 µM.
With `CC[C@H](C)[C@H](NC(=O)[C@@H](NC(=O)[C@H](CCCN=C(N)N)NC(=O)[C@H](C)NC(=O)[C@H](CC(C)C)NC(=O)[C@H](CCCCN)NC(=O)[C@H](CCCN=C(N)N)NC(=O)[C@H](C)NC(=O)[C@H](CC(C)C)NC(=O)[C@H](CCCN=C(N)N)NC(=O)CNC(=O)[C@H](Cc1ccccc1)NC(=O)[C@H](CCCCN)NC(=O)[C@H](CO)NC(=O)[C@H](CC(C)C)NC(=O)[C@H](CC(C)C)NC(=O)CN)C(C)C)C(=O)N1CCC[C@H]1C(=O)N[C@@H](CCCCN)C(=O)N[C@H](C(N)=O)C(C)C` [GLLSKFGRLARKLARVIPKV], the MIC in [13] is 1.5 µM (≈ 3.33 µg/mL); against Citrobacter freundii, 2 µM (≈ 4.44 µg/mL); in [14], 1.22 µM (≈ 2.72 µg/mL); in the assay on Escherichia coli it was 1.41 µM (≈ 3.14 µg/mL); with Escherichia coli ML-35 it was 1 µM (≈ 2.22 µg/mL); against Bacillus megaterium Bm11 it was 2 µM (≈ 4.44 µg/mL). Further, the MIC against Pseudomonas aeruginosa was 2 µM (≈ 4.44 µg/mL); against Micrococcus luteus it was 1 µM (≈ 2.22 µg/mL); in assay [15], 4 µM (≈ 8.89 µg/mL); in the assay with Enterococcus faecium it was 1.41 µM (≈ 3.14 µg/mL); in assay [16] it was 5.66 µM (≈ 12.6 µg/mL); in assay [3], 5.66 µM (≈ 12.6 µg/mL). The MIC against Klebsiella pneumoniae is 1 µM (≈ 2.22 µg/mL); against Candida albicans, over 4 µM; in [17], 4 µM (≈ 8.89 µg/mL); in assay [18], 1.5 µM (≈ 3.33 µg/mL); against Staphylococcus aureus, 2 µM and 2.45 µM; in assay [19], 3 µM (≈ 6.67 µg/mL).
Regarding `CC[C@H](C)[C@H](NC(=O)[C@H](CCCCN)NC(=O)[C@H](CC(C)C)NC(=O)[C@H](CC(C)C)NC(=O)[C@@H]1CCCN1C(=O)[C@H](CCCCN)NC(=O)[C@H](CC(C)C)NC(=O)[C@H](CC(C)C)NC(=O)CN)C(=O)N[C@@H](C)C(=O)N[C@@H](C)C(=O)N[C@@H](CCCCN)C(=O)N[C@H](C(=O)NCC(=O)N[C@@H](CO)C(=O)N[C@@H](CC(N)=O)C(=O)N[C@@H](CC(C)C)C(=O)N[C@@H](CC(C)C)C(N)=O)C(C)C` [GLLKPLLKIAAKVGSNLL], the MIC turned out to be 2.23 µM (≈ 4.11 µg/mL) against Acinetobacter baumannii; 25 µM (≈ 46.2 µg/mL) in assay [20]; 12.5 µM (≈ 23.1 µg/mL) in [21]; 6 µM (≈ 11.1 µg/mL) in assay [22]; 12.5 µM (≈ 23.1 µg/mL) in assay [23]; 6 µM (≈ 11.1 µg/mL) in assay [24]. For the same compound, the MIC in assay [25] amounted to 25 µM (≈ 46.2 µg/mL); in assay [26], 12.5 µM (≈ 23.1 µg/mL); in [4], 6 µM (≈ 11.1 µg/mL); in [27], 25 µM (≈ 46.2 µg/mL); in [28] it was 6 µM (≈ 11.1 µg/mL); in assay [29] it was 3 µM (≈ 5.54 µg/mL).
In the case of `CC[C@H](C)[C@H](N)C(=O)N[C@@H](CC(C)C)C(=O)N[C@@H](CCCN=C(N)N)C(=O)N[C@@H](C)C(=O)N[C@@H](Cc1c[nH]c2ccccc12)C(=O)N[C@@H](CCCCN)C(=O)N[C@@H](CCCCN)C(=O)N[C@@H](Cc1ccc(O)cc1)C(=O)NCC(=O)N1CCC[C@H]1C(=O)N[C@H](C(=O)N[C@H](C(=O)N[C@H](C(=O)N1CCC[C@H]1C(=O)N[C@H](C(=O)N[C@H](C(=O)N[C@@H](CCCN=C(N)N)C(=O)N[C@H](C(N)=O)[C@@H](C)CC)[C@@H](C)CC)[C@@H](C)CC)C(C)C)[C@@H](C)CC)[C@@H](C)CC` [ILRAWKKYGPIIVPIIRI], the MIC in [30] was 2 µM (≈ 4.3 µg/mL); in the assay on Streptococcus agalactiae it was 4 µM (≈ 8.6 µg/mL); in [15], 8 µM (≈ 17.2 µg/mL); in the assay with Enterococcus faecium, 8 µM (≈ 17.2 µg/mL); with Staphylococcus aureus it was 8 µM (≈ 17.2 µg/mL); against Serratia marcescens, 16 µM (≈ 34.4 µg/mL).
